“And” between values parts separate entries of the source, which are not always exact repeats. Equal values may be shown once. Toxic doses and inconclusive results are not listed. Cut-off read from the data, not from the text of the source: active = T/C of 150% or more; inactive = T/C below 125%.
System: L1210 leukemia ip in BDF1 mice, survival T/C
Experiment: NCI In Vivo Anticancer Drug Screen. Data for tumor model L1210 Leukemia (intraperitoneal) in B6D2F1 (BDF1) mice
Details: endpoint: mean survival time, higher = longer survival
Summary of the method: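 Read-out is survival time, reported as the treated-group measurement over the vehicle-control measurement.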

[1] = dose: 50.0 mg/kg/injection, schedule: Q01DX001 (ip), vehicle: saline
[2] = dose: 200.0 mg/kg/injection, schedule: Q01DX001 (ip), vehicle: saline
[3] = dose: 400.0 mg/kg/injection, schedule: Q01DX001 (ip), vehicle: saline
[4] = dose: 100.0 mg/kg/injection, schedule: Q01DX001 (ip), vehicle: saline

Measured: T/C

CS(=O)(=O)OCCC(=O)N1CCN(C(=O)CCOS(C)(=O)=O)CC1
active: dose: 31.25 mg/kg/injection, schedule: Q01DX Z (ip), vehicle: methylcellulose (MC) 156 % of control | dose: 33.5 mg/kg/injection, schedule: Q01DX Z (ip), vehicle: methylcellulose (MC) 150 % of control | dose: 62.5 mg/kg/injection, schedule: Q01DX Z (ip), vehicle: methylcellulose (MC) 176 % of control | dose: 75.0 mg/kg/injection, schedule: Q01DX Z (ip), vehicle: methylcellulose (MC) 162 % of control | dose: 76.0 mg/kg/injection, schedule: Q01DX Z (ip), vehicle: methylcellulose (MC) 218 % of control | dose: 100.0 mg/kg/injection, schedule: Q04DX003 (ip), vehicle: saline 153 % of control and 195 % of control | [2] 167 % of control | dose: 250.0 mg/kg/injection, schedule: Q01DX002 (ip), vehicle: saline 205 % of control and 240 % of control | [3] 213 % of control
inactive: dose: 6.3 mg/kg/injection, schedule: Q01DX001 (ip), vehicle: carboxymethylcellulose (CMC) 100 % of control and 105 % of control | dose: 9.7 mg/kg/injection, schedule: Q01DX Z (ip), vehicle: methylcellulose (MC) 106 % of control | dose: 12.5 mg/kg/injection, schedule: Q01DX001 (ip), vehicle: carboxymethylcellulose (CMC) 103 % of control and 122 % of control | dose: 14.7 mg/kg/injection, schedule: Q01DX Z (ip), vehicle: methylcellulose (MC) 104 % of control | dose: 16.0 mg/kg/injection, schedule: Q01DX002 (ip), vehicle: saline 115 % of control | dose: 22.0 mg/kg/injection, schedule: Q01DX Z (ip), vehicle: methylcellulose (MC) 110 % of control and 112 % of control | dose: 25.0 mg/kg/injection, schedule: Q01DX001 (ip), vehicle: carboxymethylcellulose (CMC) 112 % of control and 115 % of control | dose: 25.0 mg/kg/injection, schedule: Q04DX003 (ip), vehicle: saline 108 % of control | dose: 31.0 mg/kg/injection, schedule: Q01DX002 (ip), vehicle: saline 105 % of control and 115 % of control | [1] 121 % of control | dose: 50.0 mg/kg/injection, schedule: Q04DX003 (ip), vehicle: saline 123 % of control | dose: 170.0 mg/kg/injection, schedule: Q01DX Z (ip), vehicle: methylcellulose (MC) 103 % of control and 115 % of control | dose: 225.0 mg/kg/injection, schedule: Q01DX Z (ip), vehicle: methylcellulose (MC) 93 % of control

CC(C)(C(N)=O)c1ccccc1
inactive: [1] 106 % of control | [4] 103 % of control | [2] 103 % of control | [3] 100 % of control

O=C(OCc1ccccc1CN1CCCCC1)c1ccccc1
inactive: dose: 25.0 mg/kg/injection, schedule: Q04DX002 (ip), vehicle: Klucel (hydroxypropylcellulose) (HPC) 97 % of control | dose: 50.0 mg/kg/injection, schedule: Q04DX002 (ip), vehicle: Klucel (hydroxypropylcellulose) (HPC) 101 % of control | dose: 100.0 mg/kg/injection, schedule: Q04DX002 (ip), vehicle: Klucel (hydroxypropylcellulose) (HPC) 97 % of control

CCCCC(CC)COP(=O)(OCC(CC)CCCC)c1ccccc1 (configuration not stated)
inactive: [1] 100 % of control | [4] 100 % of control

CCCCCCC(C1CCCCC1)C1CCCCC1
inactive: dose: 100.0 mg/kg/injection, schedule: Q01DX001 (ip), vehicle: carboxymethylcellulose (CMC) 86 % of control | dose: 200.0 mg/kg/injection, schedule: Q01DX001 (ip), vehicle: carboxymethylcellulose (CMC) 102 % of control | dose: 400.0 mg/kg/injection, schedule: Q01DX001 (ip), vehicle: carboxymethylcellulose (CMC) 91 % of control

C#CC1=CCCC1
inactive: [4] 95 % of control | [2] 100 % of control | [3] 95 % of control

CC1CCCN(C)C1 (configuration not stated)
inactive: dose: 100.0 mg/kg/injection, schedule: Q01DX009 (ip), vehicle: Klucel (hydroxypropylcellulose) (HPC) 100 % of control | dose: 100.0 mg/kg/injection, schedule: Q04DX003 (ip), vehicle: Klucel (hydroxypropylcellulose) (HPC) 100 % of control | dose: 200.0 mg/kg/injection, schedule: Q04DX003 (ip), vehicle: Klucel (hydroxypropylcellulose) (HPC) 100 % of control | dose: 400.0 mg/kg/injection, schedule: Q04DX003 (ip), vehicle: Klucel (hydroxypropylcellulose) (HPC) 93 % of control

C[Si](C)(O)CCl
inactive: dose: 75.0 mg/kg/injection, schedule: Q01DX001 (ip), vehicle: saline 102 % of control
